Results taken from patent US8822468B2 (Novartis AG, priority 2008, dated 2014).

target: T1, cMET receptor tyrosine kinase (GST-cMET (969-1390)) (Homo sapiens, UniProt P08581); experiment: EPK cMET profiling assay (LanthaScreen TR-FRET antibody based kinase phosphorylation assay); format: biochemical; settings: purified recombinant GST-cMET (969-1390), 2 μM ATP, 50 nM Fluorescein-PolyEAY, 60 minutes at room temperature; read-out: c-Met IC50
T1 construct: made in house
Summary of the method: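 GST-cMET cytoplasmic domain (969-1390), 0.3 nM, phosphorylated 50 nM fluorescein-PolyEAY with 2 µM ATP, Mg2+/Mn2+, 0.6% DMSO, 60 min at room temperature. Stopped with EDTA; Tb-PY20 antibody TR-FRET single end-point read. Final compound concentrations 10 to 0.003 µM, 8 points.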

T1 sequence (P08581 969-1390): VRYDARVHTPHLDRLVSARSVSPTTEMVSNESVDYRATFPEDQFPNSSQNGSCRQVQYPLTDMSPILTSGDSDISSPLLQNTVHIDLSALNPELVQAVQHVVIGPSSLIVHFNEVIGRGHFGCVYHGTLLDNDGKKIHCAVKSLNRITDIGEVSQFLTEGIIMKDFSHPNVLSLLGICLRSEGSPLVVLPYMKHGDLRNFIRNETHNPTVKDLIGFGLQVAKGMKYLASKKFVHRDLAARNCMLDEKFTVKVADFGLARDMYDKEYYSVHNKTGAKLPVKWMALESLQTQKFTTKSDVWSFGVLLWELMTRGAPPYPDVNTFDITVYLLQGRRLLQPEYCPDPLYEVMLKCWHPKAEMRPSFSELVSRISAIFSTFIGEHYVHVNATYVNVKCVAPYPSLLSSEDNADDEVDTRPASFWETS

| Compound | IC50 |
| --- | --- |
| c1cnc2ccc(Cc3cnc4ccc(-c5cncnc5)nn34)cc2c1 [Example 54, 6-(6-Pyrimidin-5-yl-imidazo[1,2-b]pyridazin-3-ylmethyl)-quinoline] | 120 nM |
| CC(=O)c1cccc(-c2ccc3ncc(Cc4ccc5ncccc5c4)n3n2)c1 [Example 55, 1-[3-(3-Quinolin-6-ylmethyl-imidazo[1,2-b]pyridazin-6-yl)-phenyl]-ethanone] | 31 nM |
| COc1ncc(-c2ccc3ncc(Cc4ccc5ncccc5c4)n3n2)cn1 [Example 56, 6-[6-(2-Methoxy-pyrimidin-5-yl)-imidazo[1,2-b]pyridazin-3-ylmethyl]-quinoline] | 250 nM |
| NC(=O)c1cccc(-c2ccc3ncc(Cc4ccc5ncccc5c4)n3n2)c1 [Example 57, 3-(3-Quinolin-6-ylmethyl-imidazo[1,2-b]pyridazin-6-yl)-benzamide] | 63 nM |
| CNC(=O)c1cccc(-c2ccc3ncc(Cc4ccc5ncccc5c4)n3n2)c1 [Example 58, N-Methyl-3-(3-quinolin-6-ylmethyl-imidazo[1,2-b]pyridazin-6-yl)-benzamide] | 250 nM |
| CN(C)C(=O)c1cccc(-c2ccc3ncc(Cc4ccc5ncccc5c4)n3n2)c1 [Example 59, N,N-Dimethyl-3-(3-quinolin-6-6-ylmethyl-imidazo[1,2-b]pyridazin-6-yl)-benzamide] | 560 nM |
| CCOC(=O)c1cccc(-c2ccc3ncc(Cc4ccc5ncccc5c4)n3n2)c1 [Example 60, 3-(3-Quinolin-6-ylmethyl-imidazo[1,2-b]pyridazin-6-yl)-benzoic acid ethyl ester] | 340 nM |
| COc1ccc(-c2ccc3ncc(Cc4ccc5ncccc5c4)n3n2)cn1 [Example 62, 6-[6-(6-Methoxy-pyridin-3-yl)-imidazo[1,2-b]pyridazin-3-ylmethyl]-quinoline] | 39 nM |
| c1cnc2ccc(Cc3cnc4ccc(-c5ccc6c(c5)CCO6)nn34)cc2c1 [Example 63, 6-[6-(2,3-Dihydro-benzofuran-5-yl)-imidazo[1,2-b]pyridazin-3-ylmethyl]-quinoline] | 190 nM |
| OCCCc1ccc(-c2ccc3ncc(Cc4ccc5ncccc5c4)n3n2)cc1 [Example 64, 3-[4-(3-Quinolin-6-ylmethyl-imidazo[1,2-b]pyridazin-6-yl)-phenyl]-propan-1-ol] | 79 nM |
| c1cnc2ccc(Cc3cnc4ccc(-c5ccsc5)nn34)cc2c1 [Example 65, 6-(6-Thiophen-3-yl-imidazo[1,2-b]pyridazin-3-ylmethyl)-quinoline] | 160 nM |
| CN(C)CCNC(=O)c1cccc(-c2ccc3ncc(Cc4ccc5ncccc5c4)n3n2)c1 [Example 66, N-(2-Dimethylamino-ethyl)-3-(3-quinolin-6-ylmethyl-imidazo[1,2-b]pyridazin-6-yl)-benzamide] | 60 nM |
| N#Cc1cc(-c2ccc3ncc(Cc4ccc5ncccc5c4)n3n2)ccc1F [Example 67, 2-Fluoro-5-(3-quinolin-6-ylmethyl-imidazo[1,2-b]pyridazin-6-yl)-benzonitrile] | 160 nM |
| Fc1ccc(-c2ccc3ncc(Cc4ccc5ncccc5c4)n3n2)cc1Cl [Example 68, 6-[6-(3-Chloro-4-fluoro-phenyl)-imidazo[1,2-b]pyridazin-3-ylmethyl]-quinoline] | 480 nM |
| c1cnc2ccc(Cc3cnc4ccc(-c5ccn[nH]5)nn34)cc2c1 [Example 69, 6-[6-(2H-Pyrazol-3-yl)-imidazo[1,2-b]pyridazin-3-ylmethyl]-quinoline] | 820 nM |
| CNC(=O)c1ccc(-c2ccc3ncc(Cc4ccc5ncccc5c4)n3n2)cc1F [Example 70, 2-Fluoro-N-methyl-4-(3-quinolin-6-ylmethyl-imidazo[1,2-b]pyridazin-6-yl)-benzamide] | 62 nM |
| CNC(=O)c1ccc(-c2ccc3ncc(Cc4ccc5ncccc5c4)n3n2)cc1Cl [Example 71, 2-Chloro-N-methyl-4-(3-quinolin-6-ylmethyl-imidazo[1,2-b]pyridazin-6-yl)-benzamide] | 24 nM |
| Oc1ccc(-c2ccc3ncc(Cc4ccc5ncccc5c4)n3n2)cn1 [Example 73, 5-(3-Quinolin-6-ylmethyl-imidazo[1,2-b]pyridazin-6-yl)-pyridin-2-ol] | 48 nM |
| Clc1ccc2ncc(Cc3ccc4nccn4c3)n2n1 [Example 74, 6-chloro-3-imidazo[1,2-a]pyridin-6-ylmethyl-imidazo[1,2-b]pyridazine] | 200 nM |
| OCCNc1ccc2ncc(Cc3ccc4nccn4c3)n2n1 [Example 75, 2-(3-Imidazo[1,2-a]pyridin-6-ylmethyl-imidazo[1,2-b]pyridazin-6-ylamino)-ethanol] | 300 nM |
| CN(C)[C@@H]1CCN(c2ccc3ncc(Cc4ccc5nccn5c4)n3n2)C1 [Example 76, [(R)-1-(3-Imidazo[1,2-a]pyridin-6-ylmethyl-imidazo[1,2-b]pyridazin-6-yl)-pyrrolidin-3-yl]-dimethyl-amine] | 300 nM |
| CCC(C)Nc1ccc2ncc(Cc3ccc4ncccc4c3)n2n1 (centres unmarked) [Example 78, sec-Butyl-(3-quinolin-6-ylmethyl-imidazo[1,2-b]pyridazin-6-yl)-amine] | 9 nM |

| Compound | IC50 |
| --- | --- |
| CC(C)CNc1ccc2ncc(Cc3ccc4ncccc4c3)n2n1 [Example 79, Isobutyl-(3-quinolin-6-ylmethyl-imidazo[1,2-b]pyridazin-6-yl)-amine] | 44 nM |
| c1cnc2ccc(Cc3cnc4ccc(NCC5CCCO5)nn34)cc2c1 (centres unmarked) [Example 80, (3-Quinolin-6-ylmethyl-imidazo[1,2-b]pyridazin-6-yl)-(tetrahydro-furan-2-ylmethyl)-amine] | 38 nM |
| c1cnc2ccc(Cc3cnc4ccc(NC5CCCC5)nn34)cc2c1 [Example 81, Cyclopentyl-(3-quinolin-6-ylmethyl-imidazo[1,2-b]pyridazin-6-yl)-amine] | 76 nM |
| c1ccc(CNc2ccc3ncc(Cc4ccc5ncccc5c4)n3n2)cc1 [Example 82, Benzyl-(3-quinolin-6-ylmethyl-imidazo[1,2-b]pyridazin-6-yl)-amine] | 220 nM |
| CN1CCC(Nc2ccc3ncc(Cc4ccc5ncccc5c4)n3n2)CC1 [Example 83, (1-Methyl-piperidin-4-yl)-(3-quinolin-6-ylmethyl-imidazo[1,2-b]pyridazin-6-yl)-amine] | 115 nM |
| c1cnc2ccc(Cc3cnc4ccc(N5CCOCC5)nn34)cc2c1 [Example 84, 6-(6-Morpholin-4-yl-imidazo[1,2-b]pyridazin-3-ylmethyl)-quinoline] | 49 nM |
| c1cnc2ccc(Cc3cnc4ccc(N5CCCC5)nn34)cc2c1 [Example 85, 6-(6-Pyrrolidin-1-yl-imidazo[1,2-b]pyridazin-3-ylmethyl)-quinoline] | 95 nM |
| CN(C)C1CCN(c2ccc3ncc(Cc4ccc5ncccc5c4)n3n2)CC1 [Example 86, Dimethyl-[1-(3-quinolin-6-ylmethyl-imidazo[1,2-b]pyridazin-6-yl)-piperidin-4-yl]-amine] | 160 nM |
| CN(C)[C@@H]1CCN(c2ccc3ncc(Cc4ccc5ncccc5c4)n3n2)C1 [Example 88, Dimethyl-[(R)-1-(3-quinolin-6-ylmethyl-imidazo[1,2-b]pyridazin-6-yl)-pyrrolidin-3-yl]-amine] | 12 nM |
| COCCNc1ccc2ncc(Cc3ccc4ncccc4c3)n2n1 [Example 89, (2-Methoxy-ethyl)-(3-quinolin-6-ylmethyl-imidazo[1,2-b]pyridazin-6-yl)-amine] | 26 nM |
| CCC(CC)Nc1ccc2ncc(Cc3ccc4ncccc4c3)n2n1 [Example 90, (1-Ethyl-propyl)-(3-quinolin-6-ylmethyl-imidazo[1,2-b]pyridazin-6-yl)-amine] | 74 nM |
| CC(C)Nc1ccc2ncc(Cc3ccc4ncccc4c3)n2n1 [Example 91, Isopropyl-(3-quinolin-6-ylmethyl-imidazo[1,2-b]pyridazin-6-yl)-amine] | 29 nM |
| OCCNc1ccc2ncc(Cc3ccc4ncccc4c3)n2n1 [Example 92, 2-(3-Quinolin-6-ylmethyl-imidazo[1,2-b]pyridazin-6-ylamino)-ethanol] | 32 nM |
| Cc1csc(Nc2ccc3ncc(Cc4ccc5ncccc5c4)n3n2)n1 [Example 93] | 390 nM |
| CC(=O)NCCNc1ccc2ncc(Cc3ccc4ncccc4c3)n2n1 [Example 96, N-[2-(3-Quinolin-6-ylmethyl-imidazo[1,2-b]pyridazin-6-ylamino)-ethyl]-acetamide] | 190 nM |
| c1cnc2ccc(Cc3cnc4ccc(NC5CCCCCCC5)nn34)cc2c1 [Example 97, Cyclooctyl-(3-quinolin-6-ylmethyl-imidazo[1,2-b]pyridazin-6-yl)-amine] | 610 nM |
| CCC(C)(C)Nc1ccc2ncc(Cc3ccc4ncccc4c3)n2n1 [Example 98, (1,1-Dimethyl-propyl)-(3-quinolin-6-ylmethyl-imidazo[1,2-b]pyridazin-6-yl)-amine] | 110 nM |
| O=S1(=O)CCC(Nc2ccc3ncc(Cc4ccc5ncccc5c4)n3n2)C1 (centres unmarked) [Example 99, 1,1-Dioxo-tetrahydro-1lambda*6*-thiophen-3-yl)-(3-quinolin-6-ylmethyl-imidazo[1,2-b]pyridazin-6-yl)-amine] | 120 nM |
| CN(C)CCCNc1ccc2ncc(Cc3ccc4ncccc4c3)n2n1 [Example 101, N,N-Dimethyl-N′-(3-quinolin-6-ylmethyl-imidazo[1,2-b]pyridazin-6-yl)-propane-1,3-diamine] | 130 nM |
| O=C1CN(c2ccc3ncc(Cc4ccc5ncccc5c4)n3n2)CCN1 [Example 102, 4-(3-Quinolin-6-ylmethyl-imidazo[1,2-b]pyridazin-6-yl)-piperazin-2-one] | 38 nM |
| CC(Nc1ccc2ncc(Cc3ccc4ncccc4c3)n2n1)c1ccccc1 (centres unmarked) [Example 103, (1-Phenyl-ethyl)-(3-quinolin-6-ylmethyl-imidazo[1,2-b]pyridazin-6-yl)-amine] | 550 nM |
| CN(C)c1ccc2ncc(Cc3ccc4ncccc4c3)n2n1 [Example 106, Dimethyl-(3-quinolin-6-ylmethyl-imidazo[1,2-b]pyridazin-6-yl)-amine] | 74 nM |
